tested on: RAW264.7 rat macrophage cell line; assay: MTT assay, normal cells RAW264.7; format: cell-based; conditions: rat, 48 h
Excerpt: (§1) The cytotoxicity against normal cells and cancer cells was confirmed using the MTT assay for the novel compounds KP2 to KP8 prepared in Example 1.
(§2) MTT assay method is as follows:
(§3) Normal cells (RAW264.7 rat macrophage cell line (osteoblast progenitor cell) and NIH3T3 mouse fibroblast line) and cancer cells (AGS human gastric cancer cell line, A549 human lung cancer cell line, HepG2 human liver cancer cell line, HCT116 human colon cancer cell line, PC3 human prostate cancer Cell line, Caki-1 human kidney cancer cell line, T24 human bladder cancer cell line, HT1080 human fibrosarcoma cell line, B16F10 mouse melanoma cell line) were cultured in 5% CO2 in 96-well plates containing DMEM with 10% FBS (fetal bovine serum). After incubation, KP2 to KP8 and controls (osmundacetone and 4-hydroxybenzalacetone) were added to the cell medium and incubated for 48 hours. Thereafter, 100 μl of MTT (0.5 mg/mL phosphate buffered saline) was added, followed by incubation for 2 hours. 100 μl of DMSO was added to each well, followed by incubation for 10 minutes, and the absorbance was measured at 550 nm using a microplate reader (SPCTRA MAX 340PC, Molecular Devices, USA). Absorbance is calculated by the formula below as an indicator of the number of cells that survived, and reproducibility was confirmed by three experiments.
(§4) The rate of cell proliferation (%)=OD550(sample)/OD550(control)

Row | Compound | LD50 Normal cells RAW264.7 [µM]
1 | CC(=O)C=Cc1ccc(O)cc1 [4-Hydroxybenzalacetone, reference compound] | 294 ± 45
2 | CC(=O)/C=C/c1ccc(C)c(O)c1 [KP2, (E)-4-(3-hydroxy-4-methylphenyl)but-3-en-2-one] | 395 ± 22
3 | CC(=O)/C=C/c1ccc(F)c(O)c1 [KP3, (E)-4-(4-fluoro-3-hydroxyphenyl)but-3-en-2-one] | 503 ± 57
4 | COc1cc(/C=C/C(C)=O)ccc1O [KP4, (E)-4-(4-hydroxy-3-methoxyphenyl)-3-buten-2-one] | 399 ± 42

tested on: NIH3T3 mouse fibroblast line; assay: MTT assay, normal cells NIH3T3; format: cell-based; conditions: not given
Excerpt: as §1, §2, §3, §4

Row | Compound | cytotoxicity to normal cells
5 | CC(=O)/C=C/c1ccc(C)c(O)c1 [KP2, (E)-4-(3-hydroxy-4-methylphenyl)but-3-en-2-one] | weak cytotoxicity

same assay, conditions: mouse, 48 h

Row | Compound | LD50 Normal cells NTH3T3 [µM]
6 | CC(=O)C=Cc1ccc(O)cc1 [4-Hydroxybenzalacetone, reference compound] | 201 ± 10
7 | CC(=O)/C=C/c1ccc(C)c(O)c1 [KP2, (E)-4-(3-hydroxy-4-methylphenyl)but-3-en-2-one] | 688 ± 12
8 | CC(=O)/C=C/c1ccc(F)c(O)c1 [KP3, (E)-4-(4-fluoro-3-hydroxyphenyl)but-3-en-2-one] | >5000
9 | COc1cc(/C=C/C(C)=O)ccc1O [KP4, (E)-4-(4-hydroxy-3-methoxyphenyl)-3-buten-2-one] | >5000

tested on: AGS human gastric cancer cell line; assay: MTT assay, cancer cells AGS; format: cell-based; conditions: 48 hours
Excerpt: as §1, §2, §3, §4

Row | Compound | LD63 Cancer cell AGS [µM]
10 | CC(=O)/C=C/c1ccc(C)c(O)c1 [KP2, (E)-4-(3-hydroxy-4-methylphenyl)but-3-en-2-one] | 209 ± 5.9
11 | CC(=O)/C=C/c1ccc(F)c(O)c1 [KP3, (E)-4-(4-fluoro-3-hydroxyphenyl)but-3-en-2-one] | 239 ± 14
12 | COc1cc(/C=C/C(C)=O)ccc1O [KP4, (E)-4-(4-hydroxy-3-methoxyphenyl)-3-buten-2-one] | 417 ± 15

tested on: A549 human lung cancer cell line; assay: MTT assay, cancer cells A549; format: cell-based; conditions: A549 lung cancer cells
Excerpt: as §1, §2, §3, §4

Row | Compound | cancer cell inhibitory activity versus Osmundacetone
13 | CC(=O)/C=C/c1ccc(C)c(O)c1 [KP2, (E)-4-(3-hydroxy-4-methylphenyl)but-3-en-2-one] | significantly better cancer cell inhibitory activity

same assay, conditions: MTT assay, 48 hours, A549

Row | Compound | LD63 Cancer cell A549 [µM]
14 | CC(=O)/C=C/c1ccc(C)c(O)c1 [KP2, (E)-4-(3-hydroxy-4-methylphenyl)but-3-en-2-one] | 471 ± 24
15 | CC(=O)/C=C/c1ccc(F)c(O)c1 [KP3, (E)-4-(4-fluoro-3-hydroxyphenyl)but-3-en-2-one] | 1090 ± 46
16 | COc1cc(/C=C/C(C)=O)ccc1O [KP4, (E)-4-(4-hydroxy-3-methoxyphenyl)-3-buten-2-one] | 3010 ± 38

tested on: HepG2 human liver cancer cell line; assay: MTT assay, cancer cells HepG2; format: cell-based; conditions: HepG2 hepatocellular carcinoma cells
Excerpt: as §1, §2, §3, §4

Row | Compound | cancer cell inhibitory activity versus Osmundacetone
17 | CC(=O)/C=C/c1ccc(C)c(O)c1 [KP2, (E)-4-(3-hydroxy-4-methylphenyl)but-3-en-2-one] | significantly better cancer cell inhibitory activity

same assay, conditions: MTT assay, 48 hours, HepG2

Row | Compound | LD63 Cancer cell HepG2 [µM]
18 | CC(=O)/C=C/c1ccc(C)c(O)c1 [KP2, (E)-4-(3-hydroxy-4-methylphenyl)but-3-en-2-one] | 339 ± 79
19 | CC(=O)/C=C/c1ccc(F)c(O)c1 [KP3, (E)-4-(4-fluoro-3-hydroxyphenyl)but-3-en-2-one] | 612 ± 95

tested on: HCT116 human colon cancer cell line; assay: MTT assay, cancer cells HCT116; format: cell-based; conditions: HP116 colorectal cancer cells
Excerpt: as §1, §2, §3, §4

Row | Compound | inhibitory activity better than Osmundacetone [times]
20 | CC(=O)/C=C/c1ccc(C)c(O)c1 [KP2, (E)-4-(3-hydroxy-4-methylphenyl)but-3-en-2-one] | 2
21 | CC(=O)/C=C/c1ccc(F)c(O)c1 [KP3, (E)-4-(4-fluoro-3-hydroxyphenyl)but-3-en-2-one] | 2

same assay, conditions: MTT assay, 48 hours, HCT116

Row | Compound | LD63 Cancer cell HCT116 [µM]
22 | CC(=O)/C=C/c1ccc(C)c(O)c1 [KP2, (E)-4-(3-hydroxy-4-methylphenyl)but-3-en-2-one] | 380 ± 32
23 | CC(=O)/C=C/c1ccc(F)c(O)c1 [KP3, (E)-4-(4-fluoro-3-hydroxyphenyl)but-3-en-2-one] | 389 ± 18
24 | COc1cc(/C=C/C(C)=O)ccc1O [KP4, (E)-4-(4-hydroxy-3-methoxyphenyl)-3-buten-2-one] | 495 ± 13

tested on: PC3 human prostate cancer Cell line; assay: MTT assay, cancer cells PC3; format: cell-based; conditions: 48 hours
Excerpt: as §1, §2, §3, §4

Row | Compound | LD63 Cancer cell PC3 [µM]
25 | CC(=O)/C=C/c1ccc(C)c(O)c1 [KP2, (E)-4-(3-hydroxy-4-methylphenyl)but-3-en-2-one] | 309 ± 3.1
26 | CC(=O)/C=C/c1ccc(F)c(O)c1 [KP3, (E)-4-(4-fluoro-3-hydroxyphenyl)but-3-en-2-one] | 387 ± 48
27 | COc1cc(/C=C/C(C)=O)ccc1O [KP4, (E)-4-(4-hydroxy-3-methoxyphenyl)-3-buten-2-one] | 223 ± 85

tested on: Caki-1 human kidney cancer cell line; assay: MTT assay, cancer cells Caki-1; format: cell-based; conditions: 48 hours
Excerpt: as §1, §2, §3, §4

Row | Compound | LD63 Cancer cell Caki-1 [µM]
28 | CC(=O)/C=C/c1ccc(C)c(O)c1 [KP2, (E)-4-(3-hydroxy-4-methylphenyl)but-3-en-2-one] | 387 ± 57
29 | CC(=O)/C=C/c1ccc(F)c(O)c1 [KP3, (E)-4-(4-fluoro-3-hydroxyphenyl)but-3-en-2-one] | 408 ± 12
30 | COc1cc(/C=C/C(C)=O)ccc1O [KP4, (E)-4-(4-hydroxy-3-methoxyphenyl)-3-buten-2-one] | 506 ± 13

tested on: T24 human bladder cancer cell line; assay: MTT assay, cancer cells T24; format: cell-based; conditions: MTT assay, 48 hours, T24
Excerpt: as §1, §2, §3, §4

Row | Compound | LD63 Cancer cell T24
31 | CC(=O)/C=C/c1ccc(C)c(O)c1 [KP2, (E)-4-(3-hydroxy-4-methylphenyl)but-3-en-2-one] | 1120 ± 67 µM
32 | CC(=O)/C=C/c1ccc(F)c(O)c1 [KP3, (E)-4-(4-fluoro-3-hydroxyphenyl)but-3-en-2-one] | >5,000 μM
33 | COc1cc(/C=C/C(C)=O)ccc1O [KP4, (E)-4-(4-hydroxy-3-methoxyphenyl)-3-buten-2-one] | >5000 µM

tested on: HT1080 human fibrosarcoma cell line; assay: MTT assay, cancer cells HT1080; format: cell-based; conditions: 48 hours
Excerpt: as §1, §2, §3, §4

Row | Compound | LD63 Cancer cell HT1080
34 | CC(=O)/C=C/c1ccc(C)c(O)c1 [KP2, (E)-4-(3-hydroxy-4-methylphenyl)but-3-en-2-one] | 256 ± 14 µM
35 | CC(=O)/C=C/c1ccc(F)c(O)c1 [KP3, (E)-4-(4-fluoro-3-hydroxyphenyl)but-3-en-2-one] | 379 ± 10 µM
36 | COc1cc(/C=C/C(C)=O)ccc1O [KP4, (E)-4-(4-hydroxy-3-methoxyphenyl)-3-buten-2-one] | >5,000 μM

tested on: B16F10 mouse melanoma cell line; assay: MTT assay, cancer cells B16F10; format: cell-based; conditions: 48 hours, H16F10
Excerpt: as §1, §2, §3, §4

Row | Compound | Cytotoxicity, B16F10 cells [µM]
37 | CC(=O)/C=C/c1ccc(C)c(O)c1 [KP2, (E)-4-(3-hydroxy-4-methylphenyl)but-3-en-2-one] | 298 ± 27
38 | CC(=O)/C=C/c1ccc(F)c(O)c1 [KP3, (E)-4-(4-fluoro-3-hydroxyphenyl)but-3-en-2-one] | 278 ± 15
39 | COc1cc(/C=C/C(C)=O)ccc1O [KP4, (E)-4-(4-hydroxy-3-methoxyphenyl)-3-buten-2-one] | 423 ± 39

tested on: osteoblasts (mouse MC3T3-E1); assay: ALP (Alkaline phosphatase) assay, osteoblast activity; format: cell-based; conditions: 10 μM and 50 μM
Protocol: Effect of KP4 to KP6 on proliferation and differentiation of osteoblast were confirmed using ALP (Alkaline phosphatase) assay, a method for measuring osteoblast activity.
Alkaline phosphatase (ALP), which is present in the cell membranes of osteoblasts, is known as a marker of osteoblast activity and is a regulator of inorganic phosphate transport, cell division or differentiation during calcification. Therefore, ALP activity was measured to determine the effect of the compounds of the present invention on the activity of osteoblasts. ALP activity was indirectly calculated by measuring the amount of p-nitrophenol, which is produced from hydrolysis of p-nitrophenyl phosphate (pNPP, Sigma, St. Louis, Mo., USA) in which ALP act as a catalyst, using a microplate reader at 405 nm wavelength.
Specifically, osteoblasts (mouse MC3T3-E1) were aliquoted into a 96-well plate (3×10^3 cells/100 μL/well) with α-MEM medium containing ascorbic acid (50 μg/mL) and 10 mM β-glycerophosphate, a differentiation factors of osteoblast. Then, KP4 to KP6 of the present invention, and osmundacetone were added at a final concentration of 10 μM and 50 μM, followed by changing medium every 72 hours and incubating for 14 days. After 14 days, the culture medium was removed from each well, washed three times with PBS, lysed with 0.2% Nonidet P-40/10 mmol/L MgCl2, and then treated ultrasonic wave with sosonifier cell disrupter (Model W-380, Heat Systems-Ultrasonics Inc., Farmingdale, N.Y.) for 3 minutes. The cell lysate was centrifuged at 1500 g for 10 minutes and the supernatant was collected to measure ALP activity. To account for changes in ALP activity according to cell number differences, total protein levels were measured using bicinchoninic acid (BCA) protein assay kit with bovine serum albumin as the standard protein, and enzyme activity was expressed as a percentage against the control group without the compound treatment.

Row | Compound | ALP activity / osteoblast activation versus control
40 | COc1cc(/C=C/C(C)=O)ccc1O [KP4, (E)-4-(4-hydroxy-3-methoxyphenyl)-3-buten-2-one] | higher ALP activity

same assay, conditions: 10 μM, MC3T3-E1, 14 days, percentage against control

Row | Compound | % Activation of ALP activity [%]
41 | COc1cc(/C=C/C(C)=O)ccc1O [KP4, (E)-4-(4-hydroxy-3-methoxyphenyl)-3-buten-2-one] | 113 ± 2.9

same assay, conditions: 50 μM

Row | Compound | ALP activity increase compared with the control group [%] | osteoblast activity compared to osmundacetone treat group [times]
42 | COc1cc(/C=C/C(C)=O)ccc1O [KP4, (E)-4-(4-hydroxy-3-methoxyphenyl)-3-buten-2-one] | ≥ 400 | 1.5

same assay, conditions: 50 μM, MC3T3-E1, 14 days, percentage against control

Row | Compound | % Activation of ALP activity [%]
43 | COc1cc(/C=C/C(C)=O)ccc1O [KP4, (E)-4-(4-hydroxy-3-methoxyphenyl)-3-buten-2-one] | 422 ± 6.9
